Patent US6291247A, “Methods of screening for factors that disrupt neurotrophin conformation and reduce neurotrophin biological activity” (priority 1996, dated 2001)
Bridges are numbered along the chain shown (N, C = ends). Where no end group is shown, it is not given here.

Tests used:
PC12 cells [1] = test: Toxicity to PC12 cells; type: cell-based, rat; details: for Toxicity (PC12 cell viability): 100 μM
Protocol: (§1) Effects of divalent ions on NGF mediated survival and toxicity was evaluated using a colorimetric assay for the lysosomal enzyme acid phosphatase to determine cell number (Connolly, D. T., Knight, M. B., Harakas, N. K, Wittwer, A. J. & Feder, J. Determination of the number of endothelial cells in culture using an acid phosphatase assay. Anal. Biochem. 152, 136-140 (1986); Ueda, Y., Walsh, E., Nakanishi H. & Yoshida, K. A. colorometric assay method for the evaluation of neurotrophic activity in vitro. Neurosci. Lett. 165, 203-207 (1994)). […] To evaluate toxicity, the cells were seeded and maintained without NGF in RPMI with 10% heat inactivated donor horse serum and 5% fetal calf serum in the presence of additives. Loss in viable cell number was determined and expressed as a percent of control. NGF rescues PC12 cells from cell death in serum-free medium(Greene, L. A. Nerve growth factor prevents the death and stimulates neuronal differentiation of clonal PC12 pheochromocytoma cells in serum-free medium. J. Cell Biol. 78, 747-755 (1978)). NGF-dependent survival was assessed by harvesting PC12 cells in balanced salt solution followed with washing by 4 cycles of suspension and centrifugation in serum-free RPMI prior to seeding in 96 well plates. After incubation with additives, medium was removed from the wells and cells washed once with 200 μl PBS. Buffer containing 0.1M sodium acetate pH 5.5, 0.1% Triton X-100 and 10 mM p-nitrophenyl phosphate (Sigma 104 phosphatase substrate) was added to each well (100 μl). Plates were incubated at 37° C. for 3 hours. The reaction was stopped by the addition of 10 μl/well of 1N sodium hydroxide and the color development measured at 405 nm using a microplate reader. The relationship between cell number and enzyme activity was linear over the range 1000 to 15,000 cells.
(§2) To explore the ability of other transition metals to influence the biological activities of NGF, a series of cations known to mimic in certain respects the binding of zinc to proteins were tested. […] For this reason these ions were not tested in NGF- dependant growth phenomena. […] As these studies appeared to indicate potentially complex results upon metal ions binding to NGF, a receptor crosslinking system where specific receptor types could be identified was utilized.

p75^NTR and TrkA [2] = molecular target: T1, p75^NTR and TrkA (Mus musculus, UniProt P01139); test: Binding of 125I-NGF to PC12 cells (p75NTR + TrkA); parameters: species or system rat; details: 100 μM, 120 min; for Total Binding to PC12 cells: 125I-NGF
T1 construct: these cells express both NGF receptor types; endogenous in cells; host or cells: PC12 rat pheochromocytoma cells
T1 sequence (P01139 122-239): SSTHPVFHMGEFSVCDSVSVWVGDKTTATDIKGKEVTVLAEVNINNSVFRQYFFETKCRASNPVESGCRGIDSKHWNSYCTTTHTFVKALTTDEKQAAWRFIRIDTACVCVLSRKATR
Protocol: (§3) PC12 cells were grown in RPMI with 10% heat inactivated donor horse serum and 5% fetal calf serum. […] The tubes were incubated for 2 hr at 4° C. and 100 μl aliquots (providing triplicate data points for each sample) were transferred to 400 μl microcentrifuges containing 200 μl of 10% glycerol in HKR. Tubes were centrifuged for 2 minutes at 5,000 rpm, the tip containing the cell pellet cut off and radioactivity bound to the cells was determined.

p75^NTR and TrkA [3] = test system: T2, p75^NTR and TrkA; test: Binding of 125I-NGF to PC12 cells (p75NTR + TrkA); parameters: species or system rat
T2 construct: these cells express both NGF receptor types; endogenous in cells; host or cells: PC12 rat pheochromocytoma cells
T2 sequence (P01139 122-239): as above
Protocol: as §3

NGF [4] = molecular target: T3, NGF (Mus musculus, UniProt P01139); test: NGF protomer crosslinking with BS3 (NGF conformation), metal ions; type: biochemical; details: for NGF Protomer Conformation (active/inactive): 100 μM
T3 construct: homodimer
T3 sequence (P01139 122-239): as above
Protocol: For crosslinking NGF […], 0.4 mM BS^3 was added to the mixture and incubated for 30 minutes at 25° C. […] For CD studies, NGF (50 μg/ml) was dissolved in 50 mM Tris-HCl buffer and spectra recorded using a computer controlled Jasco J-600 spectropolarimeter. Samples were acquired in the absence or presence of Zn^2+ (100 μM) at 22° C. in a 2 mm quartz cell averaged over eight scans. Modification of His residues by DEPC was carried out as previously described, where the molar excess of DEPC added and the extent of reaction was determined by evaluating the loss of binding activity of the modified product.

DRG neurons = test: NGF-mediated neurite outgrowth of DRG neurons, metal ions; type: cell-based, chick; details: 100 μM
Protocol: Dissosiated cells enriched for sensory neurons were prepared from ED8 chick DRG as described (Dostaler, S. M. et al. Characterization of a distinctive motif of the low molecular weight neurotrophin receptor that modulates NGF-mediated neurite growth. Eur. J. Neurosci. 8, 870-879 (1996)). Neurons were seeded at a density of 800-1000 cells/well in Ham's F-12 containing 5% FCS and NGF at 10 pM into wells of Terasaki plates treated with polyysine. The cells were incubated with the indicated additives at 37° C. in a 5% CO2 atmosphere. The cells on the entire lower horizontal surface of the well were scored for neurite growth at 18-20 hours using an inverted microscope fitted with phase contrast optics. A neurite was scored if its caliber from the origin to terminal was constant and its length was equal to or greater than 1.5 cell body diameters. Neurite growth was corrected for background (no NGF).

PC12 cells [5] = test: NGF-dependent survival of PC12 cells; type: cell-based, rat; details: for Antagonism of NGF-dependent survival: high (1 nM) or low (50 pM) NGF
Protocol: as §1, §2

TrkA receptor = test: NGF-dependent TrkA phosphorylation in PC12 cells, metal ions; type: cell-based, rat; details: 100 μM; PC12 cells
Protocol: Zn^2+ and/or other additives were allowed to equilibrate with NGF for 2 hours at 4° C. prior to addition of cells. PC12 cells were used at 10^6 cells/ml and incubated with 40 pM NGF for 15 minutes at 37° C. At the conclusion of the reaction, cells were washed, lysed in TBS containing 10% glycerol, 1% Triton X-100, 1 mM PMSF, 10 μg/ml aprotinin, 1 μg/ml leupeptin and 500 μM orthovanadate (lysis buffer, 10^8 cells/ml). The cellular debris was removed by centrifugation and the soluble proteins incubated with an anti-TrkA cytoplasmic domain antibody. Antibody complexes were isolated by incubating with immobilized protein G (Pierce Ultralink; 70 μl of a 50% slurry) for 2 hours at 4° C. The solid phase was washed extensively with lysis buffer and the pellet dissolved in SDS sample buffer. Proteins were resolved using 6% SDS PAGE and Western analysis performed with anti-phosphotyrosine 4G10 (UBI) visualized with ECL (Amersham).

p75^NTR /TrkA [6] = test: Receptor crosslinking of 125I-NGF with transition metal ions (receptor selectivity); type: binding
Sequence of p75^NTR /TrkA (P01139 122-239): as above
Sequence of p75^NTR /TrkA (P07174 30-425 partner): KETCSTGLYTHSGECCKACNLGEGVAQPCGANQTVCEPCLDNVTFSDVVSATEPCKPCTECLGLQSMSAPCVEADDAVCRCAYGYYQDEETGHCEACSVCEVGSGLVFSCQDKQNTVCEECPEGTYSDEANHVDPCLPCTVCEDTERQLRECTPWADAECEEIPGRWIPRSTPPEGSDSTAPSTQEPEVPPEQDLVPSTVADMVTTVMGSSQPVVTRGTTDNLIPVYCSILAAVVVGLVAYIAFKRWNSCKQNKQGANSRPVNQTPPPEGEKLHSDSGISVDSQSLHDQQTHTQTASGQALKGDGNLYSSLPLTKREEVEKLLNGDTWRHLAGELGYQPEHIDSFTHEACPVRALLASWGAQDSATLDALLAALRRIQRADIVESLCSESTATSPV
Sequence of p75^NTR /TrkA (P35739 33-799 partner): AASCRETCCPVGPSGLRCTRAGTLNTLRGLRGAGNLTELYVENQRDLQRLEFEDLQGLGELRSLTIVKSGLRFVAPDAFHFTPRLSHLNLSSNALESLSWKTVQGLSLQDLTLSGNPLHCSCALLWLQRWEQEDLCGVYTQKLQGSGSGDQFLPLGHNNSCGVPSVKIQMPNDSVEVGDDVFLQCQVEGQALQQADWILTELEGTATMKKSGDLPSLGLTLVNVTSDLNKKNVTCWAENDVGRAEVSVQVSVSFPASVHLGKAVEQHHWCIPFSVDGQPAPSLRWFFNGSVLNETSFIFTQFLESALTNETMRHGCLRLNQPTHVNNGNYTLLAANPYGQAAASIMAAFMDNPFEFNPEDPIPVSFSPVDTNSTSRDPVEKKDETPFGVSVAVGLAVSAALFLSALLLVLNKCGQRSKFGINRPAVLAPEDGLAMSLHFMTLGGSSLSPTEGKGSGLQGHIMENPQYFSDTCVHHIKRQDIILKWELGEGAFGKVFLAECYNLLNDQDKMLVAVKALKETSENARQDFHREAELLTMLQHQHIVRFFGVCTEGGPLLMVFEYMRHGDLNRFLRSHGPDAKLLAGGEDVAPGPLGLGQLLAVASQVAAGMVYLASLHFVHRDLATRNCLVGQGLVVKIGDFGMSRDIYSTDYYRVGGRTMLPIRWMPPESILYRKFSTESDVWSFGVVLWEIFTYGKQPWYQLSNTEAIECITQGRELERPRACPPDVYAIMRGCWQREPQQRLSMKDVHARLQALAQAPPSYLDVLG
Protocol: as §2

p75^NTR /TrkA [7] = molecular target: p75^NTR /TrkA (Mus musculus, UniProt P01139); test: as above; type: binding; details: 100 μM
Sequence of p75^NTR /TrkA (Mus musculus, UniProt P01139) (P01139 122-239): as the sequence (P01139 122-239) above
Sequence of p75^NTR /TrkA (Mus musculus, UniProt P01139) (P07174 30-425 partner): as the sequence (P07174 30-425 partner) above
Sequence of p75^NTR /TrkA (Mus musculus, UniProt P01139) (P35739 33-799 partner): as the sequence (P35739 33-799 partner) above
Protocol: as §2

[8] = test system: dorsal root ganglion (DRG) neurons; test: NGF-dependent neurite growth of ED8 chick DRG neurons (FIG. 6, Terasaki plates); type: cell-based; details: concentrations of 500 μk (so in the source)
Protocol: FIG. 6 is a graph showing the ability of R11 to inhibit the activity of NGF in vitro using a biological assay system. […] Dissociated cells enriched for sensory neurons were prepared from embryonic day 8 (ED8) chick dorsal root ganglion (DRG) as described (Sutter et al., J. Biol. Chem. 254: 5972-5982 (1979)). Neurons were seed into wells of Terasaki plates treated sequentially with poly-D-lysine and laminin at a density of 800-1000 cells/well in "synthetic" Dulbecco's modified Eagle medium (Bottenstein et al., Proc. Natl. Acad. Sci. USA 76: 514-517 (1979)) containing 1% fetal calf serum and NGF at […]. The cells were incubated with the additives indicated at 37° C. in a 5% CO2 atmosphere At 18-20 hours, the cells were fixed in 4% formaldehyde in phosphate-buffered saline and scored for neurite growth. The cells on the entire lower horizontal surface of the well were counted using an inverted microscope fitted with phase contrast optics. A neurite was scored if its caliber from origin to terminal was constant and its length was equal to or greater than 1.5 cell body diameters. Neurite growth was corrected for background (no NGF) growth in the presence and absence of peptide.
Such a profile is not typical of a competitive inhibitor. That is, a different dose response profile would be expected if R11 were simply competing with NGF for binding to a receptor. Neither of the less constrained synthetic Intermediates of R11, i.e., R11 (linear) or R11 (monocyclic), was as effective in blocking NGF-dependent neurite growth concentrations up to 200 μM.

NGF [9] = molecular target: T3, NGF; test: Cross-linking of NGF protomers in a cell-free system (Example 6); type: biochemical; details: R11 analogues, concentration not given

Row | Molecule | Blocking of NGF binding to TrkA and p75NTR in receptor crosslinking (p75^NTR /TrkA [6]) | Receptor Selectivity (p75NTR/TrkA) (p75^NTR /TrkA [7]) | Toxicity (PC12 cell viability) (PC12 cells [1]) | Total Binding to PC12 cells (p75^NTR and TrkA [2]) | Prevention of 125I-NGF binding to PC12 cells (p75^NTR and TrkA [3]) | NGF Protomer Conformation (active/inactive) (NGF [4]) | Antagonism of NGF-dependent survival (PC12 cells [5]) | also measured
1 | [Ca+2] [Ca^2+, reference compound] | – | – | – | – | – | – | – | Toxicity to PC12 cells (PC12 cells [1]; in presence of serum, up to 100 μM): not toxic; steady-state specific binding of 125I-NGF (0.5 nM) to p75NTR and TrkA (p75^NTR and TrkA [2]; ± SEM): 91 ± 7 % Control; Inhibition of 125I-NGF binding (p75^NTR and TrkA [3]; 100 μM, CaEDTA together with Zn2+): neither Ca^2+ nor Mg^2+ displayed significant inhibition; NGF monomer crosslinking by BS3 (NGF [4]; 0.1 nM 125I-NGF, CaEDTA together with Zn2+): no effect on crosslinking efficiency; NGF-induced neurite extension (DRG neurons): no effect; NGF-mediated survival of PC12 cells (PC12 cells [5]; 100 μM, serum-free, CaEDTA together with Zn2+): no effect; NGF-induced TrkA phosphorylation (TrkA receptor): not detected
2 | [Ni+2] [Ni^2+] | selective for blocking the binding of NGF to TrkA but did not prevent the binding of NGF to p75^NTR | TrkA only | 100 ± 19 % control | 69 ± 18 % control | did not show appreciable inhibition | inactive | ability to antagonize the NGF-dependant survival | Effect on conformation of NGF in protomer crosslinking (NGF [4]): did not appear to have an effect on the conformation; Survival @ 50 pM NGF (PC12 cells [5]; 100 μM, 50 pM NGF): 15 ± 13 % control; Survival @ 1 nM NGF (PC12 cells [5]; 100 μM, 1 nM NGF): 23 ± 10 % control
3 | [Au+3] [Au^3+] | selective for blocking the binding of NGF to TrkA but did not prevent the binding of NGF to p75^NTR | TrkA only | 102 ± 13 % control | 107 ± 4 % control | did not show appreciable inhibition | active | ability to antagonize the NGF-dependant survival | Survival @ 50 pM NGF (PC12 cells [5]; rat, pc12 cells, 100 µM): 0.1 ± 9 % control; Survival @ 1 nM NGF (PC12 cells [5]; rat, pc12 cells, 100 µM): -8 ± 5 % control
4 | BR11: same amino acid composition as R11, except that the CVC domain has been moved to appear at the N-terminus (CVCCRASNPVESGC; disulfide 1-14, 3-4) | – | – | – | – | – | – | – | Inhibition of NGF-mediated neurite growth [8]: did not inhibit NGF-mediated neurite growth; Cross-linking of NGF promoters (NGF dimer disruption assay) (NGF [9]): not effective in influencing the crosslinking of NGF promoters
